Source: patent US7208520B2, “Crystals of hydroxynorephedrine derivative” (Kissei Pharmaceutical Co., Ltd., priority 2001, dated 2007)

Experiment: Stability test: storage at 60° C., residual percentage by HPLC and changes in appearance
Format: physicochemical
Settings: for Residual percentage: determined by HPLC
Protocol: Stability test was carried out under a condition of storage at 60° C. for crystalline form A obtained in Example 2, crystalline form B obtained in Example 3 and the amorphous form of compound (II) obtained in Reference Example 1. The residual percentage of test substances was determined by HPLC, and the changes in appearance were observed.

[1] = storage at 60° C., 7 days, hydrochloride

With CCOC(=O)COc1cc(C)c(CCN[C@@H](C)[C@H](O)c2ccc(O)cc2)cc1C [compound 1, Ethyl (−)-2-[4-[2-[[(1S,2R)-2-hydroxy-2-(4-hydroxyphenyl)-1-methyethyl]amino]ethyl]-2,5-dimethylphenoxy]acetate, reference compound] the Appearance (storage at 60° C., 7 days) was “tannish”, the Residual percentage (storage at 60° C., 7 days) was 40.0 and the Appearance (storage period: Initial) was “Color-”. The Residual percentage (storage period: Initial) was 100.

With CCOC(=O)COc1cc(C)c(CCN[C@@H](C)[C@H](O)c2ccc(O)cc2)cc1C.Cl [Example 3, Crystalline form B of ethyl (−)-2-[4-[2-[[(1S,2R)-2-hydroxy-2-(4-hydroxyphenyl)-1-methyethyl]amino]ethyl]-2,5-dimethylphenoxy]acetate hydrochloride] the Changes in appearance (storage at 60° C.) was “no changes in appearance”, the Appearance (storage at 60° C., 7 days) was “white” and the Residual percentage [1] was 99.9. For the same compound, the Appearance (storage period: Initial) was “white” and the Residual percentage (storage period: Initial) was 100.

In the case of CCOC(=O)COc1cc(C)c(CCN[C@@H](C)[C@H](O)c2ccc(O)cc2)cc1C.Cl [Example 2, Crystalline form A of ethyl (−)-2-[4-[2-[[(1S,2R)-2-hydroxy-2-(4-hydroxyphenyl)-1-methyethyl]amino]ethyl]-2,5-dimethylphenoxy]acetate hydrochloride], the Changes in appearance (storage at 60° C.) is reported as “no changes in appearance”, the Appearance (storage at 60° C., 7 days) is reported as “white” and the Residual percentage [1] is reported as 100. For the same compound, the Appearance (storage period: Initial) was “white” and the Residual percentage (storage period: Initial) was 100.
